{"source": "the supplement of paper PMC10307832", "assay_in_all_cases": "relative viability (nuclei count vs DMSO), 5 days (fraction); higher = more cells survive", "key": {"NCI-H1993": {"system": "NCI-H1993", "in_short": "(§1)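 After 5 days of treatment, lung cancer cells in 1536-well plates were fixed and stained in a single step (final 0.05% Triton X-100, 1% formaldehyde, 1 ug/ml Hoechst) and their nuclei counted on 4× images. Treatment had been applied by pin tool the day after seeding as one drug alone or as a fixed anchor-drug dose with five library-drug doses (not always all listed) in √10 steps. Relative viability is the nuclei count of treated wells divided by that of vehicle wells, and values are medians of duplicate plates.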"}, "NCI-H2405": {"system": "NCI-H2405", "in_short": "as §1"}, "NCI-H1395": {"system": "NCI-H1395", "in_short": "as §1"}, "NCI-H2087": {"system": "NCI-H2087", "in_short": "as §1"}, "NCI-H1792": {"system": "NCI-H1792", "in_short": "as §1"}, "NCI-H2342": {"system": "NCI-H2342", "in_short": "as §1"}, "LOU-NH91": {"system": "LOU-NH91", "in_short": "as §1"}, "HARA": {"system": "HARA", "in_short": "as §1"}, "BEN": {"system": "BEN", "in_short": "as §1"}, "HCC-827": {"system": "HCC-827", "in_short": "as §1"}, "EKVX": {"system": "EKVX", "in_short": "as §1"}}, "data": [{"molecule": "Nc1ccn([C@@H]2O[C@H](CO)[C@@H](O)[C@@H]2O)c(=O)n1", "note": "[Cytarabine] + CCNC(=O)c1noc(-c2cc(C(C)C)c(O)cc2O)c1-c1ccc(CN2CCOCC2)cc1 [Luminespib] (partner 0.01 µM)", "values": [{"measurement": "relative viability", "setting": "NCI-H1993; first compound 0.005 µM", "result": 0.964}, {"measurement": "relative viability", "setting": "NCI-H1993; first compound 0.01581 µM", "result": 0.706}, {"measurement": "relative viability", "setting": "NCI-H1993; first compound 0.05 µM", "result": 0.695}, {"measurement": "relative viability", "setting": "NCI-H1993; first compound 0.1581 µM", "result": 0.512}, {"measurement": "relative viability", "setting": "NCI-H1993; first compound 0.5 µM", "result": 0.525}, {"measurement": "relative viability", "setting": "NCI-H2405; first compound 0.005 µM", "result": 0.64}, {"measurement": "relative viability", "setting": "NCI-H2405; first compound 0.01581 µM", "result": 0.547}, {"measurement": "relative viability", "setting": "NCI-H2405; first compound 0.05 µM", "result": 0.553}, {"measurement": "relative viability", "setting": "NCI-H2405; first compound 0.1581 µM", "result": 0.369}, {"measurement": "relative viability", "setting": "NCI-H2405; first compound 0.5 µM", "result": 0.318}, {"measurement": "relative viability", "setting": "NCI-H1395; first compound 0.005 µM", "result": 0.544}, {"measurement": "relative viability", "setting": "NCI-H1395; first compound 0.01581 µM", "result": 0.61}, {"measurement": "relative viability", "setting": "NCI-H1395; first compound 0.05 µM", "result": 0.437}, {"measurement": "relative viability", "setting": "NCI-H1395; first compound 0.1581 µM", "result": 0.366}, {"measurement": "relative viability", "setting": "NCI-H1395; first compound 0.5 µM", "result": 0.346}, {"measurement": "relative viability", "setting": "NCI-H2087; first compound 0.005 µM", "result": 0.151}, {"measurement": "relative viability", "setting": "NCI-H2087; first compound 0.01581 µM", "result": 0.134}, {"measurement": "relative viability", "setting": "NCI-H2087; first compound 0.05 µM", "result": 0.169}, {"measurement": "relative viability", "setting": "NCI-H2087; first compound 0.1581 µM", "result": 0.151}, {"measurement": "relative viability", "setting": "NCI-H2087; first compound 0.5 µM", "result": 0.134}, {"measurement": "relative viability", "setting": "NCI-H1792; first compound 0.01581 µM", "result": 0.431}, {"measurement": "relative viability", "setting": "NCI-H1792; first compound 0.05 µM", "result": 0.366}, {"measurement": "relative viability", "setting": "NCI-H1792; first compound 0.1581 µM", "result": 0.313}, {"measurement": "relative viability", "setting": "NCI-H1792; first compound 0.5 µM", "result": 0.271}, {"measurement": "relative viability", "setting": "NCI-H2342; first compound 0.005 µM", "result": 0.597}, {"measurement": "relative viability", "setting": "NCI-H2342; first compound 0.01581 µM", "result": 0.723}, {"measurement": "relative viability", "setting": "NCI-H2342; first compound 0.05 µM", "result": 0.642}, {"measurement": "relative viability", "setting": "NCI-H2342; first compound 0.1581 µM", "result": 0.462}, {"measurement": "relative viability", "setting": "NCI-H2342; first compound 0.5 µM", "result": 0.444}, {"measurement": "relative viability", "setting": "LOU-NH91; first compound 0.005 µM", "result": 0.362}, {"measurement": "relative viability", "setting": "LOU-NH91; first compound 0.01581 µM", "result": 0.361}, {"measurement": "relative viability", "setting": "LOU-NH91; first compound 0.05 µM", "result": 0.321}, {"measurement": "relative viability", "setting": "LOU-NH91; first compound 0.1581 µM", "result": 0.316}, {"measurement": "relative viability", "setting": "LOU-NH91; first compound 0.5 µM", "result": 0.317}, {"measurement": "relative viability", "setting": "HARA; first compound 0.005 µM", "result": 0.898}, {"measurement": "relative viability", "setting": "HARA; first compound 0.01581 µM", "result": 0.303}, {"measurement": "relative viability", "setting": "HARA; first compound 0.05 µM", "result": 0.27}, {"measurement": "relative viability", "setting": "HARA; first compound 0.1581 µM", "result": 0.1}, {"measurement": "relative viability", "setting": "HARA; first compound 0.5 µM", "result": 0.0906}, {"measurement": "relative viability", "setting": "BEN; first compound 0.005 µM", "result": 0.178}, {"measurement": "relative viability", "setting": "BEN; first compound 0.01581 µM", "result": 0.324}, {"measurement": "relative viability", "setting": "BEN; first compound 0.05 µM", "result": 0.247}, {"measurement": "relative viability", "setting": "BEN; first compound 0.1581 µM", "result": 0.178}, {"measurement": "relative viability", "setting": "BEN; first compound 0.5 µM", "result": 0.122}, {"measurement": "relative viability", "setting": "HCC-827; first compound 0.005 µM", "result": 0.591}, {"measurement": "relative viability", "setting": "HCC-827; first compound 0.01581 µM", "result": 0.396}, {"measurement": "relative viability", "setting": "HCC-827; first compound 0.05 µM", "result": 0.336}, {"measurement": "relative viability", "setting": "HCC-827; first compound 0.1581 µM", "result": 0.154}, {"measurement": "relative viability", "setting": "HCC-827; first compound 0.5 µM", "result": 0.144}, {"measurement": "relative viability", "setting": "EKVX; first compound 0.005 µM", "result": 0.918}, {"measurement": "relative viability", "setting": "EKVX; first compound 0.01581 µM", "result": 0.743}, {"measurement": "relative viability", "setting": "EKVX; first compound 0.05 µM", "result": 0.736}]}]}
